Format in all cases: cell-based
Experiment [1] relates to AML cells. Put plainly: In vitro drug sensitivity assay (GI50 assay, CellTiter-Glo). The conditions noted are these: for Chemosensitization of AML cells by inhibitors of alternative PI3K catalytic isoforms (p110α, p110β, p110δ): sensitivity to doxorubicin, S63845 or selinexor (FIG. 3b); for Sensitization of AML cells to the drug by IPI-549 treatment; GI50 of combination vs drug alone: indicated AML cell lines (FIG. 3a-b); for Chemosensitization to the drug mediated by PI3Kγ inhibition with IPI-549: OCI-AML2 cells (FIG. 6). The protocol:
AML cells were plated in 96-well plates at a density of 5,000-10,000 cells per 100 μL per well. Wells were treated with drug dilution series at the doses indicated and cultured for 72 hours. Subsequently, relative cell viability was approximated using Promega CellTiter-Glo Luminescent Cell Viability Assay, normalized to either DMSO or the indicated background drug. GI50 values where approximated from dose-response curves plotted using GraphPad/Prism 8 software.
For orientation: In ATP-based viability assays light output follows the ATP content of the culture.

Experiment [2] deals with phosphorylation of AKT and downstream substrates. The experiment can be described thus: Western immunoblotting of AKT pathway phosphorylation in AML cell lines. The conditions noted are these: for Phosphorylation of AKT and its downstream substrates: cell line models of AML, immunoblot (FIG. 1d, FIG. 4b). (In general: A western blot detects proteins with antibodies after separation by electrophoresis.)

Experiment [3] has as its system phosphorylation of AKT. The experiment can be described thus: Conditioned media and SDF1-a cytokine experiments (AKT activation in AML cells). The procedure:
Serum free RPMI-1640 medium with incubated with a confluent plate of HS-5 cells for 36 hours. Conditioned media was centrifuged at 1200 rpm for 5 minutes and filtered with a 0.45 uM filter to remove any remaining cells. AML cells were incubated with conditioned media with or without IPI-549 for 30 minutes prior to harvesting on ice for lysate preparation. An analogous strategy was performed with SDF-1a (200 ng/mL) containing media. SDF-1a was purchased from ProteinTech and solubilized in water.

`Cc1cc(C(C)Nc2ccccc2)c2nc(N3CCOCC3)cc(=O)n2c1` (stereo not drawn) [TGX-221]: the “Chemosensitization of AML cells by inhibitors of alternative PI3K catalytic isoforms (p110α, p110β, p110δ)” value in experiment [1] was “not observed”. In the case of `CC(C)(C)c1cc(NC(=O)Nc2ccc(-c3cn4c(n3)sc3cc(OCCN5CCOCC5)ccc34)cc2)no1` [quizartinib], the “Sensitization of AML cells to the drug by IPI-549 treatment; GI50 of combination vs drug alone” value (“Sensitization of AML cells … vs drug alone” for short) in experiment [1] is reported as “can sensitize”. In the case of pertussis toxin, the AKT phosphorylation entry in experiment [2] (AML cell lines, Ptx 100 ng/mL for 24 hours (FIG. 1f)) is recorded as “diminished”. `Nc1ncn([C@@H]2O[C@H](CO)[C@@H](O)[C@H]2O)c(=O)n1` [azacytidine]: the “Chemosensitization to the drug mediated by PI3Kγ inhibition with IPI-549” value in experiment [1] is on record as “not observed”. Consider `CC(=O)O[C@@]12CO[C@@H]1C[C@H](O)[C@@]1(C)C(=O)[C@H](O)C3=C(C)[C@@H](OC(=O)[C@H](O)[C@@H](NC(=O)OC(C)(C)C)c4ccccc4)C[C@@](O)([C@@H](OC(=O)c4ccccc4)[C@H]21)C3(C)C` [docetaxel], for which the “Chemosensitization to the drug mediated by PI3Kγ inhibition with IPI-549” value in experiment [1] is reported as “not observed”. Still for that read-out and setting: for `CN1CC[C@@H](NC(=O)Nc2ccc(C#N)cc2)C[C@@H]1c1nc2ccccc2[nH]1` [glasdegib] the value was “not observed”. For `COc1cccc2c1C(=O)c1c(O)c3c(c(O)c1C2=O)C[C@@](O)(C(C)=O)C[C@@H]3O[C@H]1C[C@H](N)[C@H](O)[C@H](C)O1` [daunorubicin], the “Daunorubicin sensitivity under p110α inhibition; GI50 of combination vs daunorubicin alone” value in experiment [1] (any of the AML models tested (FIG. 2e; legend prints BYL-549)) is recorded as “did not alter”. Besides, the “Daunorubicin sensitivity under p110γ inhibition (IPI-549); GI50 of combination vs daunorubicin alone” value in experiment [1] (in 9/10 AML cell lines tested (FIG. 2e)) is reported as “significantly potentiated”. Also, in experiment [1], the “Sensitization of AML cells … vs drug alone” value is listed as “can sensitize”. On to `C[C@H](NC(=O)c1c(N)nn2cccnc12)c1cc2cccc(C#Cc3cnn(C)c3)c2c(=O)n1-c1ccccc1` [IPI-549], for which, in experiment [3] (HL-60 (500 nM) and OCI-AML3 (100 nM IPI-549) cells (FIG. 1g)), the “Activation of AKT signaling by media conditioned with human BM-MSCs (HS-5)” value was “fully precluded”. Further, the “Activation of AKT by SDF1α (CXCL12) stimulation” value in experiment [3] (serum-deprived AML cells, 200 ng/mL SDF1α, HL-60 500 nM, OCI-AML3 100 nM IPI-549 (FIG. 1h)) is listed as “prevented”. In addition, the “Phosphorylation of AKT and its downstream substrates” value in experiment [2] is “lost”. For the same molecule, the “Correlation of sensitivity (GI50) to IPI-549 with sensitivity to AKT inhibition with MK-2206” value in experiment [1] (panel of 10 AML cell lines (FIG. 5b-d)) is recorded as “strongly correlated”. Turning to `COc1cc([C@@H]2c3cc4c(cc3[C@@H](O[C@@H]3O[C@@H]5CO[C@@H](C)O[C@H]5[C@H](O)[C@H]3O)[C@H]3COC(=O)[C@H]23)OCO4)cc(OC)c1O` [etoposide], the “Sensitization of AML cells … vs drug alone” value in experiment [1] is “can sensitize”. On to `COc1cccc2c1C(=O)c1c(O)c3c(c(O)c1C2=O)C[C@@](O)(C(=O)CO)C[C@@H]3O[C@H]1C[C@H](N)[C@H](O)[C@H](C)O1` [doxorubicin], for which the “Sensitization of AML cells … vs drug alone” value in experiment [1] is listed as “can sensitize”.

On to `Cc1sc2c(c1C)C(c1ccc(Cl)cc1)=N[C@@H](CC(=O)OC(C)(C)C)c1nnc(C)n1-2` [JQ1], for which the “Sensitization of AML cells … vs drug alone” value in experiment [1] was “can sensitize”. Regarding `CN(Cc1cnc2nc(N)nc(N)c2n1)c1ccc(C(=O)N[C@@H](CCC(=O)O)C(=O)O)cc1` [methotrexate], the “Chemosensitization to the drug mediated by PI3Kγ inhibition with IPI-549” value in experiment [1] is listed as “not observed”.

Take `CC(=O)[C@]1(O)Cc2c(O)c3c(c(O)c2[C@@H](O[C@H]2C[C@H](N)[C@H](O)[C@H](C)O2)C1)C(=O)c1ccccc1C3=O` [idarubicin]: in experiment [1], the “Sensitization of AML cells … vs drug alone” value is “can sensitize”. Same read-out and setting: for `O=C(Nc1ccc2[nH]nc(-c3ccncc3)c2c1)[C@@H]1CCN(CC(=O)N2CCN(c3ccc(-c4ncccn4)cc3)CC2)C1` [SCH772984] the value was “can sensitize”. On to `Nc1ccn([C@@H]2O[C@H](CO)[C@@H](O)[C@@H]2O)c(=O)n1` [cytarabine], for which the “Chemosensitization to the drug mediated by PI3Kγ inhibition with IPI-549” value in experiment [1] is given as “not observed”. For `CNC(=O)c1cc(Oc2ccc(NC(=O)Nc3ccc(Cl)c(C(F)(F)F)c3)cc2)ccn1` [sorafenib], the “Sensitization of AML cells … vs drug alone” value in experiment [1] is on record as “can sensitize”. For `Cc1c(-c2c(-c3ccc(F)o3)sc3ncnc(O[C@H](Cc4ccccc4OCc4ccnn4CC(F)(F)F)C(=O)O)c23)ccc(OCCN2CCN(C)CC2)c1Cl` [compound 563845], the “Sensitization of AML cells … vs drug alone” value in experiment [1] is “can sensitize”. Turning to `O=C(/C=C\n1cnc(-c2cc(C(F)(F)F)cc(C(F)(F)F)c2)n1)NNc1cnccn1` [selinexor], the “Sensitization of AML cells … vs drug alone” value in experiment [1] is on record as “can sensitize”. As for `CC(C)n1nc(-c2ccc3oc(N)nc3c2)c2c(N)ncnc21` [MLN-128], the “Effect on potency of AKT/p110γ inhibition (MK-2206 or IPI-549); GI50 of combination vs single drug” value in experiment [1] (panel of AML cell lines (FIG. 2d, FIG. 5g)) was “enhanced the potency”. As to `Cc1nc(NC(=O)N2CCC[C@H]2C(N)=O)sc1-c1ccnc(C(C)(C)C(F)(F)F)c1` [BYL-719, Alpelisib], the “Phosphorylation of AKT and its downstream substrates” value in experiment [2] is listed as “minimally capable of suppressing”. The “Chemosensitization of AML cells by inhibitors of alternative PI3K catalytic isoforms (p110α, p110β, p110δ)” value in experiment [1] is “not observed”.

On to `O=C1[O][Pt]2([NH][C@@H]3CCCC[C@H]3[NH]2)[O]C1=O` [oxaliplatin], for which, in experiment [1], the “Chemosensitization to the drug mediated by PI3Kγ inhibition with IPI-549” value is reported as “not observed”.

For the origin of these results see patent US20230201202A1, “COMPOSITIONS AND METHODS FOR SENSITIZING ACUTE MYELOID LEUKEMIAS TO CHEMOTHERAPY” (Duke University, priority 2020, published 2023).
